The record followed here is patent US6544995B1, “Use of cysteine derivatives for preparing a medicine for treating pathologies resulting from the formation of heterotrimeric G protein” (Societe de Conseils de Recherches et d'Applications …, priority 1998, dated 2003).

Like-named read-outs stand apart in the source and are kept apart here. Where no end group is shown, it is not given here.

Series [1] has as its system production of cyclic AMP stimulated by VIP in MCF7 cells. Description: Cyclic AMP production stimulated by VIP in MCF-7 cells. The class given is cell-based, human. The following applies: for Inhibition at 30 μM of production of cyclic AMP stimulated by VIP / inhibition at 30 µM: MCF7 cells, compound 30 μM for 30 minutes, then 10^-8 M VIP, n=1; for inhibition at 30 µM: Homo sapiens, 0.5 h. On the procedure:
The cells are incubated for 30 minutes in the presence or not of compounds I, II, III and IV (30 μM) which are then stimulated by 10^−8 M of VIP. The quantification of cyclic AMP is determined by radioimmunoassay. The data represents the average±MSD (n=5 for the control and n=1 for the different compounds).

Series [2] relates to adenylate cyclase.
Procedure: (§1) MCF-7 cells (2.10^4 cells/well) seeded in 24-well plates are cultured for 5 days in Dulbecco's modified Eagle medium (Gibco-Brl, Cergy-Pontoise, France) completed with 10% of foetal calf serum inactivated by heating (Gibco-Brl, Cergy-Pontoise, France ), 50000 units/l of penicillin and 50 mg/l streptomycin (Gibco-Brl, Cergy-Pontoise, France), and 2 mM of glutamin (Gibco-Brl, Cergy-Pontoise, France). The culture medium is replaced after two washes with a medium without a serum completed or uncompleted with the specified agents for a time indicated in the different figures. Agents activating the production of cyclic AMP are then added at 37° C. The reaction is stopped after 30 minutes by suppressing the medium and rapidly adding 100 μl of a 0.1N solution of HCl. These extracts are frozen at −80° C. until they are used. The concentration of cAMP is measured using a commercial measurement kit (reference NEK033 from NEN, Les Ulis, France), following the manufacturer's instructions. The radioactivity is determined by a Gamma counter (Gamma Master-1277, LKB, Turku, Finland).
Series [3] deals with adenylate cyclase. The following applies: pretreatment 30 minutes with 30 μM; forskolin 10 μM.
Procedure: as §1
For series [4], the system named is heterotrimeric G protein. The class given is cell-based, human.
The subject of series [5] is production of cyclic AMP stimulated by VIP in MCF7 cells. Description: Cyclic AMP production stimulated by VIP in MCF-7 cells. The class given is cell-based, human.
The test system of series [6] is MAP kinase. The series can be described thus: MAP kinase activity in MCF7 cells. The class given is cell-based, human. The following applies: for activity of the MAP kinase after EGF stimulation: pretreatment 1 hour, then EGF for 5 minutes. On the procedure:
After 24 hours of culture, the cells are incubated for 48 hours in medium containing no serum in order to return the cells to a state of rest. The cells are then treated for 1 hour either with compound I or with PD98059 (Calbiochem, France Biochem, Meudon, France), a specific inhibitor of MAP kinase activation. The cells are then stimulated (or not) for 5 minutes with 12.5 ng/ml of epidermal growth factor (EGF). The reaction is stopped by two washes with PBS (Gibco-Brl, Cergy-Pontoise, France), at 4° C. containing neither calcium nor magnesium and by adding 150 μl of lysis buffer at 4° C. the composition of which is the following: 10 mM of tris, 150 mM of NaCl, 2 mM of EGTA, 2 mM of dithiothreitol, 1 mM of PMSF, 2 mM of orthovanadate, 10 μg/ml of leupeptin and 10 μg/ml of aprotinin. Measurement of the proteins contained in the extracts is carried out by Bradford's method (Biorad reagents, Ivry-Sur-Seine, France). […] The radioactivity is determined using a Packard scintillation counter (Tricarb 5000CA).

For series [7], the system named is MCF7 human tumour cells. The series can be described thus: In vitro cell proliferation of MCF-7 cells (WST1). It counts as cell-based. Conditions: 96 hours treatment, WST1 test, average of 2 experiments, read-out: IC50, inhibition of in vitro growth of MCF7 cells. As to the method:
The cells were treated on day 1 for 96 hours with increasing concentrations of up to 50 μM of each of the compounds to be tested. After this period, quantification of cell proliferation is determined by a colorimetric test, based on the cleavage of the WST1 tetrazolum salt by the mitochondrial dehydrogenases in the viable cells, leading to the formation of formazan (Boehringer Mannheim, Meylan, France). These tests are carried out in duplicate with 8 determinations per concentration tested. For each compound to be tested, the values included in the linear part of the sigmoid were retained for linear regression analysis and used to estimate the inhibitory concentration (IC50).
(In general: Formazan colour is commonly taken as a measure of viable cells.)

Usually Inhibition stands for the percentage by which the read-out fell short of the control. A lower Inhibition goes with a weak effect. One may read the IC50 as the midpoint of a concentration-inhibition curve. Usually inhibition stands for the percentage by which the read-out fell short of the control. A high value points to a response far below the control.

As for `COc1ccccc1-c1cn2c(n1)C(CC1CCCCC1)N(C(=O)C(N)CSSCC(N)C(=O)N1CCn3cc(-c4ccccc4OC)nc3C1CC1CCCCC1)CC2` (stereo not drawn) [compound (I)], the “Inhibition at 30 μM of production of cyclic AMP stimulated by VIP” value (from here on “Inhibition at 30 μM”) in series [1] is listed as 86%. Also, the “effect on adenylate cyclase activity increased by prostaglandin E2” value in series [2] (treatment for 30 minutes) is “inhibited”. The “effect on production of cyclic AMP induced by forskolin” value in series [3] is recorded as “does not modify”. In addition, the “effect on production of cyclic AMP stimulated by choleric toxin” value in series [4] is “greatly inhibited”. The “inhibition of accumulation of cyclic AMP stimulated by VIP at 100 μM” value in series [5] (100 μM, 30-minute pretreatment, VIP 10 nM) is listed as “almost complete inhibition”. For the same compound, the “inhibition of accumulation of cyclic AMP stimulated by VIP, concentration dependence” value in series [5] (30-minute pretreatment, VIP 10 nM) is “in a concentration-dependent manner”. The “effect on response to VIP, treatment for an hour” value in series [5] (1 hour treatment) is listed as “sufficient to modify the response to VIP”. In addition, in series [5] (8 hours and 24 hours treatment, VIP), the “effect on production of cyclic AMP, longer treatments” value was “continue to inhibit”. Also, the “activity of the MAP kinase after EGF stimulation” value in series [6] is given as “halves”. In addition, the “basal activity of the MAP kinase” value in series [6] (treatment for 1 hour, no EGF) was “doubles”. In series [7], the IC50 turned out to be 9.4 µM.

As to “EGF: epidermal growth factor used to stimulate MAP kinase [reference compound]”, in series [6] (stimulation by EGF for 5 minutes), the “increase of MAP kinase activity” value is given as “approximately 7 times”.

With `CCCCC[C@H](O)/C=C/[C@H]1[C@H](O)CC(=O)[C@@H]1C/C=C\CCCC(=O)O` [prostaglandin E2, reference compound], the “activity of adenylate cyclase” value in series [2] (prostaglandin E2 alone, MCF7 cells) is reported as “greatly increased”.

As for `CC(C)CC1c2nc(-c3cccc4ccccc34)cn2CCN1C(=O)C(N)CSSCC(N)C(=O)N1CCn2cc(-c3cccc4ccccc34)nc2C1CC(C)C` (stereo not drawn) [compound (II)], the “Inhibition at 30 μM” value in series [1] was determined as 71%. In series [7], the IC50 turned out to be 15 µM.

`CCC(C)C1c2nc(-c3ccccc3OC)cn2CCN1C(=O)C(N)CSSCC(N)C(=O)N1CCn2cc(-c3ccccc3OC)nc2C1C(C)CC` (stereo not drawn) [compound (VI), bis-1,1′-[7-(2-amino-1-oxo-3-thiopropyl)-2-(methoxyphenyl)-8-(1-methylpropyl)-5,6,7,8-tetrahydroimidazo[1.2a]pyrazine]]: the “Inhibition at 30 μM” value in series [1] came out at 52%.

For `CCCCC1c2nc(-c3ccccc3OC)cn2CCN1C(=O)C(N)CS` (stereo not drawn) [compound (V), 7-(2-amino-1-oxo-3-thiopropyl)-8-butyl-2-(2-methoxyphenyl)-5,6,7,8-tetrahydroimidazo[1.2a]pyrazine], the “Inhibition at 30 μM” value in series [1] is 68%.

On to “VIP: vasoactive intestinal peptide, ligand of a G protein-coupled receptor stimulating cyclic AMP synthesis (HSDAVFTDNYTRLRKQMAVKKYLNSILN; ends and bridges not checked; UniProt P01282 125-152, looked up) [reference compound]”, for which, in series [1] (treatment of MCF-7 cells with VIP alone), the “intracellular quantity of cyclic AMP” value is given as “increases the intracellular quantity of cyclic AMP in a concentration-dependent manner”.

On to `CCCC[C@H]1CN(C(=O)c2cccc3ccccc23)CCN1C[C@@H]1CSSC[C@H](N)C(=O)N1` [compound (VII)], for which the inhibition at 30 µM in series [1] turned out to be 65%.

In the case of `COc1cccc(-c2cc(=O)c3ccccc3o2)c1N` [PD98059, reference compound], the “activity of the MAP kinase after EGF stimulation” value in series [6] is recorded as “halves”.

`COC(=O)[C@@H](CC(C)C)NC(=O)c1ccc(NC[C@@H](N)CS)cc1-c1ccccc1` [compound (IV)] came in with an inhibition at 30 µM in series [1] of 52%. Moreover, in series [7] (Homo sapiens, MCF7), the half-maximal inhibitory concentration (IC50) is 34.6 µM.

With `Cc1ccccc1-c1cn2c(n1)C(CC1CCCCC1)N(C(=O)C(N)CS)CC2` (stereo not drawn) [compound (III), 7-(2-amino-1-oxo-3-thiopropyl)-8-(cyclohexylmethyl)-2-(2-methylphenyl)-5,6,7,8-tetrahydroimidazo[1.2a]pyrazine], the “Inhibition at 30 μM” value in series [1] was found to be 59%. The 50% inhibitory concentration (IC50) in series [7] stood at 16.1 µM.
